In the CheMixHub viscosity set:
Values joined by “and” are separate entries in the source; they are usually repeats but may differ in a detail not shown here. Equal entries are not always repeated.

How the values were obtained:
[1] = xn = mol fraction of the nth substance listed; conditions: 101 kPa

FC1CC(F)(F)C(F)(F)C1(F)F (configuration not stated)
101 kPa
Conditions | viscosity [mPa·s]
298.15 K | 1.65
313.15 K | 1.28
323.15 K | 1.08

CCOC(C)OCC
101 kPa
Conditions | viscosity [mPa·s]
303.1 K | 0.404
313.1 K | 0.364

ClCCCCCCCl
101 kPa
Conditions | viscosity
308.15 K | 1.616 mPa·s
313.15 K | 1.533 mPa·s and 1.534 mPa·s
318.15 K | 1.387 mPa·s

CC1(c2ccccc2)OC1C#N (configuration not stated)
101 kPa
Conditions | viscosity [mPa·s]
293.15 K | 11.77
298.15 K | 9.155
303.15 K | 7.386
313.15 K | 5.17
323.15 K | 3.522

C[N+](C)(C)CCC[N+]1(C)CCCCC1.N#C[N-]C#N.N#C[N-]C#N
100 kPa
Conditions | viscosity
293.15 K | 4503 mPa·s and 4503 mPa·s
298.15 K | 2819 mPa·s
303.15 K | 1837 mPa·s and 1837 mPa·s
308.15 K | 1224 mPa·s
313.15 K | 856.1 mPa·s and 856.1 mPa·s
318.15 K | 618.5 mPa·s
323.15 K | 460.1 mPa·s and 460.1 mPa·s

CCCC[n+]1ccn(C)c1.O=C([O-])C(F)(F)F
101 kPa
Conditions | viscosity [mPa·s]
298.15 K | 52.9
303.15 K | 58
313.15 K | 37.83
323.15 K | 26.11

C=C(C)C(=O)OC
viscosity
Conditions | 298.15 K | 303.15 K | 308.15 K | 313.15 K
101 kPa | 0.5625 mPa·s | 0.5142 mPa·s and 0.524 mPa·s | 0.4932 mPa·s | 0.4684 mPa·s
101.3 kPa | 0.584 mPa·s | – | 0.492 mPa·s | –

ClCCCCCCCl + Cc1ccc(C)cc1
viscosity [mPa·s], [1]
Conditions | x1 = 0.08955 | x1 = 0.1825 | x1 = 0.2818 | x1 = 0.3684 | x1 = 0.4454 | x1 = 0.5735 | x1 = 0.6793 | x1 = 0.7843 | x1 = 0.8888
308.15 K | 0.586 | 0.645 | 0.722 | 0.802 | 0.878 | 1.027 | 1.154 | 1.307 | 1.45
313.15 K | 0.558 | 0.621 | 0.686 | 0.756 | 0.83 | 0.972 | 1.095 | 1.242 | 1.378
318.15 K | 0.534 | 0.595 | 0.653 | 0.714 | 0.78 | 0.899 | 1.014 | 1.134 | 1.267

CCCC[P+](C)(CCCC)CCCC.COS(=O)(=O)[O-]
viscosity
Conditions | 293.15 K | 298.15 K | 303.15 K | 308.15 K | 313.15 K | 318.15 K | 323.15 K
100 kPa | 729.1 mPa·s and 729.1 mPa·s | 521.3 mPa·s and 521.3 mPa·s | 381.4 mPa·s and 381.4 mPa·s | 286.1 mPa·s and 286.1 mPa·s | 217 mPa·s and 217 mPa·s | 169.1 mPa·s and 169.1 mPa·s | 133.4 mPa·s and 133.4 mPa·s
101 kPa | 729.1 mPa·s | 521.3 mPa·s | 381.4 mPa·s | 286.1 mPa·s | 217 mPa·s | 169.1 mPa·s | 133.4 mPa·s

C=C(C)C(=O)OC + ClCCCl
[1], 303.15 K
Conditions | viscosity [mPa·s]
x1 = 0.1012 | 0.6868
x1 = 0.1978 | 0.6544
x1 = 0.3975 | 0.6068
x1 = 0.4985 | 0.5867
x1 = 0.6234 | 0.5632
x1 = 0.8713 | 0.5284

CCCCOP(=O)(O)OCCCC + CCCN
[1], 297 K
Conditions | viscosity [mPa·s]
x2 = 0.15 | 60
x2 = 0.3 | 100
x2 = 0.48 | 1370
x2 = 0.5 | 1700
x2 = 0.66 | 170
